Test results: patent publication US11198710B2, “Transgenic plant having herbicide resistance” (priority 2016, dated 2021)

Experiments:
[1] = system: transgenic rapeseed plants comprising the TaQ8GTC0 gene; test: Rapeseed sensitivity test 2 (agar medium), transgenic; type: in vivo, Brassica napus; conditions: 10 μM pyroxasulfone, 22° C., 2 weeks
Excerpt: In order to investigate the extent of pyroxasulfone resistance of the transgenic rapeseed plants comprising the […] gene introduced therein compared to wild-type plants, the growth of rapeseed was examined in an agar medium containing pyroxasulfone. Wild-type rapeseed plants (variety: Westar) and transgenic rapeseed plants comprising the TaQ8GTC0 gene introduced therein were subjected to the growth inhibitory test in an agar medium, so as to examine the resistance thereof to pyroxasulfone.
The medium (1 liter) used in the test was composed of 1× Murashige-Skoog (MS) media (a bag), thiamin hydrochloride (3 μg/ml), nicotinic acid (5 μg/ml), pyridoxin hydrochloride (0.5 μg/ml), and 1% (w/v) sucrose. The composition was added to a 1-liter beaker, a pH was adjusted to 5.7, and the volume of the composition was adjusted to 1 liter, followed by the addition of 8 g (0.8%) of agar. Thereafter, the composition was autoclaved, the temperature was cooled to room temperature, and pyroxasulfone (acetone solution) at a given concentration was added. […]
The sensitivity of rapeseed was examined in agar media comprising pyroxasulfone (0.1 μM, 1 μM, 10 μM, and 100 μM). […] Values in the table in FIGS. 41 and 42 are expressed as the mean±standard deviation (n=4 to 5). Values in FIG. 43 are expressed as the means (n=4 to 5).

TaQ8GTC0 protein = test: Glutathione conjugation activity of the TaQ8GTC0 protein to VLCFAE-inhibiting herbicides (HPLC); type: biochemical, wheat (Triticum aestivum)
Method: All the VLCFAE-inhibiting herbicides used in this example were added to the reaction mixture as acetone solutions. Conjugation reactions to the VLCFAE-inhibiting herbicides were performed in a reaction mixture (total amount: 200 μl) containing 50 μl of 100 mM potassium phosphate buffer (pH 6.8), 10 μl of 1 mM VLCFAE-inhibiting herbicide, 20 μl of 10 mM reduced glutathione (pH 7.0), 6 μl of the TaQ8GTC0 protein (378 ng in total, PBS buffer solution) and 114 μl of PBS buffer, the reaction was conducted at 30° C. for 15 minutes, the reaction product was filtered through a […], and 50 μl of the filtered solution was injected into HPLC. HPLC analysis conditions were as described below.
Apparatus: Agilent 1100 series
Column: CAPCELL PAK C18 AQ 4.6 mm (i.d.)×250 mm (SHISEIDO)
Mobile phase: acetonitrile/distilled water=5/95 (hold for 5 min)→(4 min)→40/60 (hold for 4 min)→(4 min)→90/10 (hold for 8 min)→(1 min)→5/95 (hold for 4 min) (each solvent containing 0.5% acetic acid)
When the activity of glutathione conjugation to VLCFAE-inhibiting herbicides was analyzed, the amount of glutathione conjugates (GS conjugates) produced was determined based on the amount of VLCFAE-inhibiting herbicides decreased in the reaction solution.
In Example 1, the conjugation activity to cafenstrole was determined via quantification of the compound released by the glutathione conjugation of this herbicide. In addition, peaks of GS conjugate of other herbicides (i.e., metolachlor, alachlor, flufenacet, mefenacet, phentolazamide, indanofan, anilofos, and piperophos) were unknown. When analyzing the glutathione conjugation activities to these herbicides, accordingly, glutathione conjugation reactions were performed to produce GS conjugate in the modified conditions (i.e., more amount of enzyme was added or the conjugation reaction was conducted for longer time) in the beginning to produce glutathione conjugates (GS conjugates), and the peaks were identified with LC/MS.

[2] = system: rice plants comprising the TaQ8GTC1-R gene introduced therein; test: Sensitivity of rice plants comprising the TaQ8GTC1-R gene to pyroxasulfone, gellan gum medium; type: in vivo; conditions: strains KLB-872#3-11 and KLB-872#2-4; 10^−8 to 10^−5M
Method: Pyroxasulfone resistance of 2 rice plants strains (KLB-872#3-11 and KLB-872#2-4) was examined via the germination growth inhibitory test using a gellan gum medium. At the outset, Hoagland's mix and 3 g of gellan gum were suspended in 1 liter of distilled water and thoroughly dissolved therein by heating in a microwave. A fraction of the resultant (15 ml) was poured into a tubular bottle before it was cooled (30 ml was injected into the plate). Pyroxasulfone (acetone solution) was simultaneously added at the time of filling of gellan gum medium into the tubular bottle or plate, followed by thorough mixing. Rice hulls were soaked in a 50-fold diluted sodium hypochlorite solution (antiformin) (Wako) for approximately 20 minutes and then thoroughly washed with water. Sterilized seeds were soaked in distilled water and allowed to stand at 27° C. for germination (for approximately 2 days). […] Thereafter, rice seeds that were determined to have BS resistance with the use of root elongation as the indicator were transferred to gellan gum media containing pyroxasulfone (tubal bottles) at the final concentrations of 10^−8, 10^−7, 10^−6, and 10^−5M, respectively. […] These samples were grown at 27° C. under fluorescent light illumination (14 hours of a light period and 10 hours of a dark period) for 4 to 5 days, and the plant heights were then measured. […]

## Cn1nc(C(F)(F)F)c(CS(=O)(=O)C2=NOC(C)(C)C2)c1OC(F)F [Pyroxasulfone, 3-[5-(difluoromethoxy)-1-methyl-3-(trifluoromethyl)pyrazol-4-ylmethylsulfonyl]-4,5-dihydro-5,5-dimethyl-1,2-oxazole]
[1]
  inhibition ratio on foliage leaf development: 1.2±2.7%
  inhibition ratio on plant height: 7.8±5.9%
TaQ8GTC0 protein; 378 ng TaQ8GTC0 protein, 10 μl of 1 mM herbicide in 200 μl, 30° C., 15 minutes, mean ± standard deviation
  Enzyme activity (glutathione conjugation): 11.7 ± 3.7 μmol/mg protein/15 min
TaQ8GTC0 protein; out of 10 nmol pyroxasulfone added to the reaction mixture
  GS conjugate of pyroxasulfone (M-15) produced: 4.81 nmol
[2]
  sensitivity to pyroxasulfone: sensitivity equivalent to that of wild-type plants
